Drawing on US20170189504A1, “NOVEL PEPTIDES AND COMBINATION OF PEPTIDES FOR USE IN IMMUNOTHERAPY AGAINST VARIOUS CANCERS” (immatics biotechnologies GmbH, priority 2015, published 2017), this text covers Peptide exchange for 66 substances.

The subject of the assay is HLA-A*02. Put plainly: MHC binding assay, UV-ligand exchange with β2m ELISA, HLA-A*02 (Table 20). Also on record: species or system human. The note with it: binding to HLA-A*02 ranged by peptide exchange yield (UV-ligand exchange, β2m ELISA). From the text:
Candidate peptides for T cell based therapies according to the present invention were further tested for their MHC binding capacity (affinity). The individual peptide-MHC complexes were produced by UV-ligand exchange, where a UV-sensitive peptide is cleaved upon UV-irradiation, and exchanged with the peptide of interest as analyzed. Only peptide candidates that can effectively bind and stabilize the peptide-receptive MHC molecules prevent dissociation of the MHC complexes. To determine the yield of the exchange reaction, an ELISA was performed based on the detection of the light chain ((β2m) of stabilized MHC complexes. The assay was performed as generally described in Rodenko et al. (Rodenko et al., 2006).
96 well MAXISorp plates (NUNC) were coated over night with 2 ug/ml streptavidin in PBS at room temperature, washed 4× and blocked for 1 h at 37° C. in 2% BSA containing blocking buffer. Refolded HLA-A*02:01/MLA-001 monomers served as standards, covering the range of 15-500 ng/ml. Peptide-MHC monomers of the UV-exchange reaction were diluted 100 fold in blocking buffer. Samples were incubated for 1 h at 37° C., washed four times, incubated with 2 ug/ml HRP conjugated anti-β2m for 1 h at 37° C., washed again and detected with TMB solution that is stopped with […]. Absorption was measured at 450 nm. Candidate peptides that show a high exchange yield (preferably higher than 50%, most preferred higher than 75%) are generally preferred for a generation and production of antibodies or fragments thereof, and/or T cell receptors or fragments thereof, as they show sufficient avidity to the MHC molecules and prevent dissociation of the MHC complexes.

As to “89 (QLAPVFQRV; listed as Homo sapiens) [compound 89]”, the Peptide exchange result is “++ (20%-49% = ++)”.

With “94 (LLLPAVPVGA; listed as Homo sapiens) [compound 94]”, the Peptide exchange result was “+++ (50%-75% = +++)”.

On to “95 (GLLGSLFFL; listed as Homo sapiens) [compound 95]”, for which the Peptide exchange result was “++++ (≧75% = ++++)”.

In the case of “98 (RLFPDFFTRVAL; listed as Homo sapiens) [compound 98]”, the Peptide exchange result is on record as “++ (20%-49% = ++)”.

Turning to “99 (YLLQSVNQLLL; listed as Homo sapiens) [compound 99]”, the Peptide exchange entry is listed as “++ (20%-49% = ++)”.

Regarding “100 (ALLGMIIVGV; listed as Homo sapiens) [compound 100]”, the Peptide exchange result is “+ (<20% = +)”.

Take “101 (ALADFMLSL; listed as Homo sapiens) [compound 101]”: the Peptide exchange entry was “+++ (50%-75% = +++)”.

On to “102 (VLLDIQEVFQI; listed as Homo sapiens) [compound 102]”, for which the Peptide exchange entry is given as “+++ (50%-75% = +++)”.

“103 (YLVSEIFKA; listed as Homo sapiens) [compound 103]”: the Peptide exchange result is “+++ (50%-75% = +++)”.

Consider “104 (ALISWQPPRA; listed as Homo sapiens) [compound 104]”, for which the Peptide exchange entry is on record as “+++ (50%-75% = +++)”.

Regarding “105 (ALLGTKILL; listed as Homo sapiens) [compound 105]”, the Peptide exchange result is “+++ (50%-75% = +++)”.

Regarding “106 (FINDSIVYL; listed as Homo sapiens) [compound 106]”, the Peptide exchange entry is “+++ (50%-75% = +++)”.

With “107 (LLVPTSGIYFV; listed as Homo sapiens) [compound 107]”, the Peptide exchange entry is “+++ (50%-75% = +++)”.

For the substance “108 (ILLKNLVTI; listed as Homo sapiens) [compound 108]”, the Peptide exchange entry is listed as “++ (20%-49% = ++)”.

In the case of “109 (SLDPSVTHL; listed as Homo sapiens) [compound 109]”, the Peptide exchange result is reported as “++ (20%-49% = ++)”.

Consider “110 (FLLGVSKEV; listed as Homo sapiens) [compound 110]”, for which the Peptide exchange result is listed as “+++ (50%-75% = +++)”.

In the case of “111 (AIVDLIHDI; listed as Homo sapiens) [compound 111]”, the Peptide exchange entry was “++ (20%-49% = ++)”.

For “112 (SLGKFTFDV; listed as Homo sapiens) [compound 112]”, the Peptide exchange result is listed as “++++ (≧75% = ++++)”.

Regarding “113 (FLERGLESA; listed as Homo sapiens) [compound 113]”, the Peptide exchange result is listed as “++ (20%-49% = ++)”.

“114 (QLIQTLHAV; listed as Homo sapiens) [compound 114]”: the Peptide exchange result is reported as “+++ (50%-75% = +++)”.

As for “115 (SLDPDTLPAV; listed as Homo sapiens) [compound 115]”, the Peptide exchange result is reported as “++ (20%-49% = ++)”.

“117 (KMPDVELFV; listed as Homo sapiens) [compound 117]”: the Peptide exchange result was “+++ (50%-75% = +++)”.

Turning to “118 (QLWQFLVTL; listed as Homo sapiens) [compound 118]”, the Peptide exchange entry is recorded as “+++ (50%-75% = +++)”.

As to “119 (FIIQGLRSVGA; listed as Homo sapiens) [compound 119]”, the Peptide exchange result is given as “+++ (50%-75% = +++)”.

For the substance “120 (VTPVTVSAV; listed as Homo sapiens) [compound 120]”, the Peptide exchange result was “+ (<20% = +)”.

Regarding “121 (FTIFRTISV; listed as Homo sapiens) [compound 121]”, the Peptide exchange result is recorded as “+++ (50%-75% = +++)”.

Regarding “122 (GVVDPVHGV; listed as Homo sapiens) [compound 122]”, the Peptide exchange entry was “++ (20%-49% = ++)”.

Take “123 (VLDPALPALV; listed as Homo sapiens) [compound 123]”: the Peptide exchange entry is “++ (20%-49% = ++)”.

Take “124 (KVMATIEKV; listed as Homo sapiens) [compound 124]”: the Peptide exchange entry is recorded as “++ (20%-49% = ++)”.

Consider “125 (SLADYEHFV; listed as Homo sapiens) [compound 125]”, for which the Peptide exchange entry is “++++ (≧75% = ++++)”.

“126 (QMFQYFITV; listed as Homo sapiens) [compound 126]”: the Peptide exchange entry was “++++ (≧75% = ++++)”.

For the substance “127 (KLDGNELDL; listed as Homo sapiens) [compound 127]”, the Peptide exchange entry is “+++ (50%-75% = +++)”.

In the case of “128 (TQSPATLSV; listed as Homo sapiens) [compound 128]”, the Peptide exchange result was “++ (20%-49% = ++)”.

Turning to “129 (RLQDILWFL; listed as Homo sapiens) [compound 129]”, the Peptide exchange entry is recorded as “++++ (≧75% = ++++)”.

With “130 (SLLGGTFVGI; listed as Homo sapiens) [compound 130]”, the Peptide exchange entry is listed as “+++ (50%-75% = +++)”.

For the substance “131 (VTSNSGILGV; listed as Homo sapiens) [compound 131]”, the Peptide exchange entry is “+++ (50%-75% = +++)”.

Take “132 (ILGEVLAQL; listed as Homo sapiens) [compound 132]”: the Peptide exchange result is recorded as “+++ (50%-75% = +++)”.

With “133 (ALLPRLHQL; listed as Homo sapiens) [compound 133]”, the Peptide exchange result is listed as “++++ (≧75% = ++++)”.

Take “134 (GLAVPTPSV; listed as Homo sapiens) [compound 134]”: the Peptide exchange result is on record as “+++ (50%-75% = +++)”.

As for “135 (HLSTIIHEA; listed as Homo sapiens) [compound 135]”, the Peptide exchange entry is listed as “+++ (50%-75% = +++)”.

As to “136 (FLFGGVLMTL; listed as Homo sapiens) [compound 136]”, the Peptide exchange entry was “++ (20%-49% = ++)”.

As to “142 (ILVEGISTV; listed as Homo sapiens) [compound 142]”, the Peptide exchange result is “+++ (50%-75% = +++)”.

For the substance “143 (ALLPELREV; listed as Homo sapiens) [compound 143]”, the Peptide exchange result is reported as “+++ (50%-75% = +++)”.

Take “145 (YLWATIQRI; listed as Homo sapiens) [compound 145]”: the Peptide exchange entry is on record as “+++ (50%-75% = +++)”.

Take “146 (ALHFSEDEI; listed as Homo sapiens) [compound 146]”: the Peptide exchange entry is “++ (20%-49% = ++)”.

Turning to “147 (YLMDDTVEI; listed as Homo sapiens) [compound 147]”, the Peptide exchange entry is recorded as “++++ (≧75% = ++++)”.

“148 (MLAGIAITV; listed as Homo sapiens) [compound 148]”: the Peptide exchange entry was “+++ (50%-75% = +++)”.

As to “152 (MMVGDLLEV; listed as Homo sapiens) [compound 152]”, the Peptide exchange result was “+++ (50%-75% = +++)”.

For the substance “153 (FISERVEVV; listed as Homo sapiens) [compound 153]”, the Peptide exchange entry is reported as “++++ (≧75% = ++++)”.

On to “154 (RLLGTEFQV; listed as Homo sapiens) [compound 154]”, for which the Peptide exchange result is “+++ (50%-75% = +++)”.

For the substance “155 (LLNPVVEFV; listed as Homo sapiens) [compound 155]”, the Peptide exchange result was “+++ (50%-75% = +++)”.

Take “156 (ILGDLSHLL; listed as Homo sapiens) [compound 156]”: the Peptide exchange result is on record as “+++ (50%-75% = +++)”.

Turning to “157 (TLTSLLAQA; listed as Homo sapiens) [compound 157]”, the Peptide exchange result was “+++ (50%-75% = +++)”.

With “234 (LLSPHNPAL; listed as Homo sapiens) [compound 234]”, the Peptide exchange entry is listed as “+++ (50%-75% = +++)”.

In the case of “236 (STIAILNSV; listed as Homo sapiens) [compound 236]”, the Peptide exchange entry is listed as “+++ (50%-75% = +++)”.

For the substance “237 (ALAPHLDDA; listed as Homo sapiens) [compound 237]”, the Peptide exchange result is “+++ (50%-75% = +++)”.

“238 (GLYERPTAA; listed as Homo sapiens) [compound 238]”: the Peptide exchange result was “++ (20%-49% = ++)”.

As for “239 (KMNESTRSV; listed as Homo sapiens) [compound 239]”, the Peptide exchange entry is given as “++ (20%-49% = ++)”.

With “240 (YMGEEKLIASV; listed as Homo sapiens) [compound 240]”, the Peptide exchange result is on record as “+++ (50%-75% = +++)”.

Take “241 (KTIQQLETV; listed as Homo sapiens) [compound 241]”: the Peptide exchange result is “++ (20%-49% = ++)”.

Consider “242 (WLYGEDHQI; listed as Homo sapiens) [compound 242]”, for which the Peptide exchange entry was “++ (20%-49% = ++)”.

“243 (FMADDIFSV; listed as Homo sapiens) [compound 243]”: the Peptide exchange entry is reported as “+++ (50%-75% = +++)”.

As for “244 (YLLEKNRVV; listed as Homo sapiens) [compound 244]”, the Peptide exchange entry is “++ (20%-49% = ++)”.

For the substance “245 (SLLDLPLSL; listed as Homo sapiens) [compound 245]”, the Peptide exchange result is reported as “++++ (≧75% = ++++)”.

For “246 (TVSDVLNSV; listed as Homo sapiens) [compound 246]”, the Peptide exchange entry is listed as “+++ (50%-75% = +++)”.

Consider “250 (SLAPATPEV; listed as Homo sapiens) [compound 250]”, for which the Peptide exchange entry is “+++ (50%-75% = +++)”.
